{"source": "patent US6660870B1", "about": "“2-acylaminobenzimidazole derivatives for treating glaucoma” (Alcon, Inc., priority 2000, dated 2003)", "key": {"brain 5-HT2 receptors": {"target": "brain 5-HT2 receptors (Rattus norvegicus, UniProt P14842)", "sequence (P14842 whole entry)": "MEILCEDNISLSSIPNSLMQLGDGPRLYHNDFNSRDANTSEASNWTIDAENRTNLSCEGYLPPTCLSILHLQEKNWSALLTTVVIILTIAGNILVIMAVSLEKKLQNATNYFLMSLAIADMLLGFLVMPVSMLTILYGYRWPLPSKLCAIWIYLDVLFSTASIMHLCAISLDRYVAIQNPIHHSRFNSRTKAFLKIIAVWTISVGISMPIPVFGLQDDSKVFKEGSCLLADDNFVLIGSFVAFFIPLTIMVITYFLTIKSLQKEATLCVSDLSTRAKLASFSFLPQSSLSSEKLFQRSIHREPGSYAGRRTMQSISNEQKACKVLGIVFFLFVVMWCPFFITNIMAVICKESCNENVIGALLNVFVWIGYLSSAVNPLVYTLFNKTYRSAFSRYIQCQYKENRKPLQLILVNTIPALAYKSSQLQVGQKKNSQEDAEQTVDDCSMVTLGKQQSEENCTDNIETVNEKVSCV", "experiment": "5-HT2 Receptor Binding Assay ([125I]DOI competition)", "conditions": "competition for [125I]DOI binding, post mortem rat or human cerebral cortex homogenates", "method": "5-HT2 Receptor Binding Assay\nAliquots of post mortem rat or human cerebral cortex homogenates (400 μl) dispersed in 50 mM TrisHCl buffer (pH 7.4) are incubated with [^125I]DOI (80 pM final) in the absence or presence of methiothepin (10 μM final) to define total and non-specific binding, respectively, in a total volume of 0.5 ml. The assay mixture is incubated for 1 hour at 23° C. in polypropylene tubes and the assays terminated by rapid vacuum filtration over Whatman GF/B glass fiber filters previously soaked in 0.3% polyethyleneimine using ice-cold buffer. Test compounds (at different concentrations) are substituted for methiothepin. Filter-bound radioactivity is determined by scintillation spectrometry on a beta counter. The data are analyzed using a non-linear. iterative curve-fitting computer program [Trends Pharmacol. Sci., 16, 413 (1995)] to determine the compound affinity parameter. The concentration of the compound needed to inhibit the [^125I]DOI binding by 50% of the maximum is termed the IC50 […]."}, "5-HT2 receptor": {"target": "T1, 5-HT2 receptor (Rattus norvegicus, UniProt P14842)", "T1 construct": "A7r5 rat vascular smooth muscle cells; endogenous in cells; host or cells: A7r5 rat vascular smooth muscle cells", "T1 sequence (P14842 whole entry)": "as above", "experiment": "5-HT2 Functional Assay: Phosphoinositide (PI) Turnover Assay", "assay_type": "cell-based", "conditions": "for EC50: [3H]inositol phosphate production in A7r5 rat vascular smooth muscle cells", "method": "5-HT2 Functional Assay: Phosphoinositide (PI) Turnover Assay\nThe relative agonist activity of serotonergic compounds at the 5-HT2 receptor can be determined in vitro using the ability of the compounds to stimulate the production of [^3H]inositol phosphates in [^3H]myo-inositol-labeled A7r5 rat vascular smooth muscle cells by their ability to activate the enzyme phospholipase C. These cells are grown in culture plates, maintained in a humidified atmosphere of 5% CO2 and 95% air and fed semi-weekly with Dulbecco's modified Eagle medium (DMEM) containing 4.5 g/l glucose and supplemented with 2 mM glutamine, 10 μg/ml gentamicin, and 10% fetal bovine serum. For the purpose of conducting the phosphoinositide (PI) turnover experiments, the A7r5 cells are cultured in 24-well plates as previously [J. Pharmacol. Expt. Ther., 286, 411 (1998)]. Confluent cells are exposed for 24-30 hrs to 1.5 μCi [^3H]-myo-inositol (18.3 Ci/mmol) in 0.5 ml of serum-free medium. Cells are then rinsed once with DMEM/F-12 containing 10 mM LiCl prior to incubation with the test agent (or solvent as the control) in 1.0 ml of the same medium for 1 hr at 37° C., after which the medium is aspirated and 1 ml of cold 0.1 M formic acid added to stop the reaction. The chromatographic separation of [^3H]-inositol phosphates ([^3H]-IPs) on an AG-1-X8 column is performed as previously described [J. Pharmacol. Expt. […] The eluate (4 ml) is collected, mixed with 15 ml scintillation fluid, and the total [^3H]-IPs determined by scintillation counting on a beta-counter. Concentration-response data are analyzed by the sigmoidal fit function of the Origin Scientific Graphics software (Microcal Software, Northampton, Mass.) to determine agonist potency (EC50 value) and efficacy (Emax). Serotonin (5-HT) is used as a positive control (standard) agonist compound and the efficacy of test compounds is compared to that of 5-HT (set at 100%)."}}, "data": [{"smiles": "COc1cc(C[C@@H](C)N)c(OC)cc1I", "note": "[(R)-DOI]", "values": [{"measurement": "IC50", "setting": "brain 5-HT2 receptors", "value": 0.46, "unit": "nM"}, {"measurement": "EC50", "setting": "5-HT2 receptor", "value": 277, "unit": "nM"}]}, {"smiles": "Cc1ccc(C(=O)Nc2nc3ccccc3n2CCN(C)C)cc1", "note": "[Example 1, 1-(N,N-Dimethylaminoethyl)-2-(4-methylbenzamido)benzimidazole]", "values": [{"measurement": "Emax", "setting": "5-HT2 receptor; A7R5, read-out: Efficacy (Emax, %)", "value": 35, "unit": "%"}, {"measurement": "EC50", "setting": "5-HT2 receptor", "value": 404, "unit": "nM"}]}]}
